Target: Regulator of G-protein signaling 4 (Homo sapiens, UniProt P49798)
Test: RGS4-Galphao binding modulators, SAR follow-up, biochemical, multiplexed bead flow cytometry, SAR compounds (AID 2295)

Sequence of Regulator of G-protein signaling 4 (P49798 whole entry): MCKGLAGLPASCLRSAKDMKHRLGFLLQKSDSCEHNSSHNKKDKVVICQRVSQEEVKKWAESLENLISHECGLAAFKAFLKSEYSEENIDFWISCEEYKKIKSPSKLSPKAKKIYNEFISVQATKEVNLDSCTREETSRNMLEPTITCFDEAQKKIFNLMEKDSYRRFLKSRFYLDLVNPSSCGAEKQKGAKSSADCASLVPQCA

SMILES | EC50 [µM] | EC50 (inactive by the depositor's call) [µM]
Cc1cc(C)c2c(n1)CCN(CC(=O)N1CCN(c3ccccc3)CC1)C2=O [2,4-dimethyl-6-[2-oxidanylidene-2-(4-phenylpiperazin-1-yl)ethyl]-7,8-dihydro-1,6-naphthyridin-5-one] | > 30 | 
Cc1cccc(N2CCN(C(=O)COc3nsc4nc(C)cc(C)c34)CC2C)c1 (configuration not stated) | 6.85 | 
Cc1cccc(N2CCN(C(=O)Cn3ccc4nc(C)cc(C)c4c3=O)CC2C)c1 (configuration not stated) [2,4-dimethyl-6-[2-[3-methyl-4-(3-methylphenyl)piperazin-1-yl]-2-oxidanylidene-ethyl]-1,6-naphthyridin-5-one] | > 30 | 
CN=c1scc(C)n1N=Cc1ccc(O)c(O)c1O [(4E)-2,3-dihydroxy-4-[[(4-methyl-2-methylimino-1,3-thiazol-3-yl)amino]methylidene]cyclohexa-2,5-dien-1-one] | 1.71 | 
Cc1cc(C)c2c(=O)n(CC(=O)N3CCN(c4ccccc4)CC3)ccc2n1 [2,4-dimethyl-6-[2-oxidanylidene-2-(4-phenylpiperazin-1-yl)ethyl]-1,6-naphthyridin-5-one] | > 30 | 
O=c1c2ccccc2sn1-c1ccccc1 [2-phenyl-1,2-benzothiazol-3-one] | 0.135 | 
CCN(CC)S(=O)(=O)c1cccc(C(=O)NN=Cc2ccc(O)c(O)c2O)c1 | 0.632 | 
Cc1cccc(N2CCN(C(=O)CN3CCc4nc(C)cc(C)c4C3=O)CC2C)c1 (configuration not stated) [KUC103675N] | > 30 | 
NS(=O)(=O)c1ccc(N=NCc2ccc(O)c(O)c2O)c([N+](=O)[O-])c1 [4-[[(E)-(2,3-dihydroxy-4-oxo-1-cyclohexa-2,5-dienylidene)methyl]hydrazo]-3-nitrobenzenesulfonamide] | 1.2 | 
CN1CCN(C2=C(Cl)C(=O)C(c3cnc(N4CCCCC4)s3)=C(Cl)C2=O)CC1 | 0.336 | 
CCOC(=O)c1sc(NC(=O)CSc2nnc(Cc3ccccc3)o2)c(C#N)c1C [4-cyano-3-methyl-5-[[1-oxo-2-[[5-(phenylmethyl)-1,3,4-oxadiazol-2-yl]thio]ethyl]amino]-2-thiophenecarboxylic acid ethyl ester] | 7.85 | 
O=c1c2ccccc2sn1-c1ccc(S(=O)(=O)N2CCCC2)cc1 [2-(4-pyrrolidin-1-ylsulfonylphenyl)-1,2-benzothiazol-3-one] | 0.323 | 
CCN(CC)S(=O)(=O)c1cccc(-c2n[nH]c(=S)n2N=Cc2ccc(C(=O)OC)cc2)c1 [4-[(E)-[3-[3-(diethylsulfamoyl)phenyl]-5-thioxo-1H-1,2,4-triazol-4-yl]iminomethyl]benzoic acid methyl ester] | 9.64 | 
CCN=c1scc(C)n1N=Cc1ccc(O)c(O)c1O | 3.52 | 
O=C(NCCCN1CCOCC1)c1sc2cc([N+](=O)[O-])ccc2c1Cl [3-chloranyl-N-(3-morpholin-4-ylpropyl)-6-nitro-1-benzothiophene-2-carboxamide] | 10.1 | 
Cc1cccc(N2CCN(C(=O)COc3noc4nc(C)cc(C)c34)CC2C)c1 (configuration not stated) [2-[(4,6-dimethyl-[1,2]oxazolo[5,4-b]pyridin-3-yl)oxy]-1-[3-methyl-4-(3-methylphenyl)piperazin-1-yl]ethanone] | > 30 | 
Cc1[nH]n(-c2ccccc2)c(=S)c1/C=N/c1cccc([N+](=O)[O-])c1 [(4E)-5-methyl-4-[(3-nitroanilino)methylene]-2-phenyl-2-pyrazoline-3-thione] | 11 | 
O=C(COc1ccccc1C(=O)NN=Cc1ccc(O)c(O)c1)NN=Cc1ccc(O)c(O)c1 [N''-[(Z)-(3-hydroxy-4-oxo-1-cyclohexa-2,5-dienylidene)methyl]-2-[2-[[(Z)-(3-hydroxy-4-oxo-1-cyclohexa-2,5-dienylidene)methyl]hydrazo]-2-oxoethoxy]benzohydrazide] | 0.164 | 
COC(=O)CCC(=O)Nc1sc(C)c(C)c1C(N)=O [4-[(3-carbamoyl-4,5-dimethyl-2-thienyl)amino]-4-keto-butyric acid methyl ester] | > 30 | 

The next lines start with the values.

EC50 [µM] | EC50 (inactive by the depositor's call) [µM] | SMILES
0.573 |  | COc1ccc(C2=CC(=O)C=CC2=O)cc1 [MLS001029846]
> 30 |  | CC1(C)OC(=O)C(=Cc2ccc(-c3ccc(S(N)(=O)=O)cc3)o2)C(=O)O1 [SMR000273939]
> 30 |  | Nc1c(C(=O)NCC2CCCO2)sc2nc3c(c(-c4ccco4)c12)CC/C3=C/c1ccco1 (configuration not stated) [UNM-0000305796]
0.3 |  | Cc1cc(Cl)ccc1/N=c1/ssnc1Cl [MLS000539990]
1.1 |  | O=C(Cc1csc(N2CCOCC2)n1)NN=Cc1ccc(O)c(O)c1O [SMR000369439]
0.269 |  | O=C1C(Cl)=C(N2CCCCC2)C(=O)C(Cl)=C1c1cnc(N2CCCCC2)s1 [MLS000550549]
 | 3.66 | CCOc1ccccc1-c1c2cc(O)c(=O)cc-2oc2cc(O)c(O)cc12 [MLS000578271]
6.61 |  | CCC(=O)NC(c1ccc(C)cc1)c1cc([N+](=O)[O-])c2cccnc2c1O (configuration not stated) [MLS000553854]

— BindingDB's records for doi:10.7270/Q2CF9NJZ (Nmmlsc, 2010)
